Key:
[1] = xn = mol fraction of the nth substance listed; details: 101.3 kPa, Liquid
[2] = relative permittivity at various frequencies (dimensionless); xn = mol fraction of the nth substance listed; details: 101.3 kPa, Liquid, HP4284A LCR Meter with HP16452A measuring cell

COCCOCCOCCOC [2,5,8,11-tetraoxadodecane] + CCCCCCCCC
Details | mass density [kg/m3] | relative permittivity
[1], 288.15 K, x1 = 0.0981 | 746.25 | –
[1], 288.15 K, x1 = 0.1985 | 771.84 | –
[1], 288.15 K, x1 = 0.2459 | 784.06 | –
[1], 288.15 K, x1 = 0.2944 | 796.71 | –
[1], 288.15 K, x1 = 0.3937 | 822.83 | –
[1], 288.15 K, x1 = 0.4957 | 850.01 | –
[1], 288.15 K, x1 = 0.5957 | 876.93 | –
[1], 288.15 K, x1 = 0.6952 | 904 | –
[1], 288.15 K, x1 = 0.7937 | 931.06 | –
[1], 288.15 K, x1 = 0.9005 | 960.86 | –
[1], 288.15 K, x1 = 0.9494 | 974.71 | –
[1], 293.15 K, x1 = 0.1006 | 742.71 | –
[1], 293.15 K, x1 = 0.1961 | 766.97 | –
[1], 293.15 K, x1 = 0.2461 | 779.84 | –
[1], 293.15 K, x1 = 0.2982 | 793.34 | –
[1], 293.15 K, x1 = 0.3979 | 819.48 | –
[1], 293.15 K, x1 = 0.4995 | 846.49 | –
[1], 293.15 K, x1 = 0.5939 | 871.77 | –
[1], 293.15 K, x1 = 0.6986 | 900.11 | –
[1], 293.15 K, x1 = 0.7979 | 927.37 | –
[1], 293.15 K, x1 = 0.9022 | 956.37 | –
[1], 293.15 K, x1 = 0.95 | 969.87 | –
[1], 298.15 K, x1 = 0.1006 | 738.55 | –
[1], 298.15 K, x1 = 0.1961 | 762.73 | –
[1], 298.15 K, x1 = 0.2461 | 775.58 | –
[1], 298.15 K, x1 = 0.2982 | 789.07 | –
[1], 298.15 K, x1 = 0.3979 | 815.17 | –
[1], 298.15 K, x1 = 0.4995 | 842.12 | –
[1], 298.15 K, x1 = 0.5939 | 867.4 | –
[1], 298.15 K, x1 = 0.6986 | 895.69 | –
[1], 298.15 K, x1 = 0.7979 | 922.84 | –
[1], 298.15 K, x1 = 0.9022 | 951.81 | –
[1], 298.15 K, x1 = 0.95 | 965.31 | –
[1], 303.15 K, x1 = 0.0982 | 733.94 | –
[1], 303.15 K, x1 = 0.2002 | 759.61 | –
[1], 303.15 K, x1 = 0.2485 | 771.99 | –
[1], 303.15 K, x1 = 0.2996 | 785.17 | –
[1], 303.15 K, x1 = 0.3994 | 811.21 | –
[1], 303.15 K, x1 = 0.495 | 836.5 | –
[1], 303.15 K, x1 = 0.5989 | 864.2 | –
[1], 303.15 K, x1 = 0.6998 | 891.41 | –
[1], 303.15 K, x1 = 0.8005 | 918.9 | –
[1], 303.15 K, x1 = 0.8999 | 946.47 | –
[1], 303.15 K, x1 = 0.9499 | 960.53 | –
[1], 308.15 K, x1 = 0.0977 | 729.91 | –
[1], 308.15 K, x1 = 0.1975 | 754.98 | –
[1], 308.15 K, x1 = 0.2469 | 767.58 | –
[1], 308.15 K, x1 = 0.2964 | 780.35 | –
[1], 308.15 K, x1 = 0.3944 | 805.91 | –
[1], 308.15 K, x1 = 0.4956 | 832.62 | –
[1], 308.15 K, x1 = 0.5976 | 859.8 | –
[1], 308.15 K, x1 = 0.6967 | 886.45 | –
[1], 308.15 K, x1 = 0.7937 | 912.91 | –
[1], 308.15 K, x1 = 0.9021 | 942.91 | –
[1], 308.15 K, x1 = 0.9497 | 956.38 | –
[1], 318.15 K, x1 = 0.0998 | 722.15 | –
[1], 318.15 K, x1 = 0.1975 | 746.41 | –
[1], 318.15 K, x1 = 0.2484 | 759.29 | –
[1], 318.15 K, x1 = 0.3021 | 773.02 | –
[1], 318.15 K, x1 = 0.3883 | 795.32 | –
[1], 318.15 K, x1 = 0.4998 | 824.5 | –
[1], 318.15 K, x1 = 0.5991 | 850.79 | –
[1], 318.15 K, x1 = 0.6998 | 877.63 | –
[1], 318.15 K, x1 = 0.799 | 904.47 | –
[1], 318.15 K, x1 = 0.9009 | 932.54 | –
[1], 318.15 K, x1 = 0.9498 | 946.28 | –
[1], 328.15 K, x1 = 0.0998 | 713.9 | –
[1], 328.15 K, x1 = 0.1975 | 737.96 | –
[1], 328.15 K, x1 = 0.2484 | 750.75 | –
[1], 328.15 K, x1 = 0.3021 | 764.37 | –
[1], 328.15 K, x1 = 0.3883 | 786.52 | –
[1], 328.15 K, x1 = 0.4998 | 815.5 | –
[1], 328.15 K, x1 = 0.5991 | 841.63 | –
[1], 328.15 K, x1 = 0.6998 | 868.32 | –
[1], 328.15 K, x1 = 0.799 | 894.99 | –
[1], 328.15 K, x1 = 0.9009 | 922.95 | –
[1], 328.15 K, x1 = 0.95 | 936.74 | –
[2], 288.15 K, x1 = 0.0979 | – | 2.32
[2], 288.15 K, x1 = 0.1997 | – | 2.72
[2], 288.15 K, x1 = 0.2461 | – | 2.91
[2], 288.15 K, x1 = 0.2965 | – | 3.15
[2], 288.15 K, x1 = 0.3969 | – | 3.65
[2], 288.15 K, x1 = 0.5043 | – | 4.24
[2], 288.15 K, x1 = 0.6013 | – | 4.83
[2], 288.15 K, x1 = 0.6972 | – | 5.48
[2], 288.15 K, x1 = 0.7975 | – | 6.22
[2], 288.15 K, x1 = 0.8996 | – | 7.02
[2], 288.15 K, x1 = 0.9503 | – | 7.44
[2], 293.15 K, x1 = 0.0979 | – | 2.3
[2], 293.15 K, x1 = 0.1999 | – | 2.7
[2], 293.15 K, x1 = 0.2483 | – | 2.9
[2], 293.15 K, x1 = 0.2962 | – | 3.12
[2], 293.15 K, x1 = 0.3968 | – | 3.61
[2], 293.15 K, x1 = 0.5047 | – | 4.2
[2], 293.15 K, x1 = 0.6015 | – | 4.78
[2], 293.15 K, x1 = 0.6957 | – | 5.4
[2], 293.15 K, x1 = 0.7975 | – | 6.11
[2], 293.15 K, x1 = 0.8996 | – | 6.9
[2], 293.15 K, x1 = 0.951 | – | 7.31
[2], 298.15 K, x1 = 0.0975 | – | 2.3
[2], 298.15 K, x1 = 0.2091 | – | 2.72
[2], 298.15 K, x1 = 0.2569 | – | 2.92
[2], 298.15 K, x1 = 0.2955 | – | 3.08
[2], 298.15 K, x1 = 0.4035 | – | 3.61
[2], 298.15 K, x1 = 0.5005 | – | 4.13
[2], 298.15 K, x1 = 0.5944 | – | 4.67
[2], 298.15 K, x1 = 0.6956 | – | 5.32
[2], 298.15 K, x1 = 0.8007 | – | 6.04
[2], 298.15 K, x1 = 0.901 | – | 6.79
[2], 298.15 K, x1 = 0.9489 | – | 7.17
[2], 303.15 K, x1 = 0.099 | – | 2.28
[2], 303.15 K, x1 = 0.2015 | – | 2.66
[2], 303.15 K, x1 = 0.2491 | – | 2.86
[2], 303.15 K, x1 = 0.297 | – | 3.06
[2], 303.15 K, x1 = 0.4001 | – | 3.56
[2], 303.15 K, x1 = 0.4967 | – | 4.06
[2], 303.15 K, x1 = 0.596 | – | 4.63
[2], 303.15 K, x1 = 0.6976 | – | 5.27
[2], 303.15 K, x1 = 0.7976 | – | 5.93
[2], 303.15 K, x1 = 0.9012 | – | 6.69
[2], 303.15 K, x1 = 0.9496 | – | 7.06
[2], 308.15 K, x1 = 0.0979 | – | 2.26
[2], 308.15 K, x1 = 0.1997 | – | 2.63
[2], 308.15 K, x1 = 0.2461 | – | 2.81
[2], 308.15 K, x1 = 0.2965 | – | 3.03
[2], 308.15 K, x1 = 0.3969 | – | 3.49
[2], 308.15 K, x1 = 0.5043 | – | 4.05
[2], 308.15 K, x1 = 0.6013 | – | 4.6
[2], 308.15 K, x1 = 0.6972 | – | 5.19
[2], 308.15 K, x1 = 0.7975 | – | 5.85
[2], 308.15 K, x1 = 0.8996 | – | 6.58
[2], 308.15 K, x1 = 0.9503 | – | 6.96
[2], 318.15 K, x1 = 0.0987 | – | 2.24
[2], 318.15 K, x1 = 0.2016 | – | 2.6
[2], 318.15 K, x1 = 0.248 | – | 2.78
[2], 318.15 K, x1 = 0.2973 | – | 2.97
[2], 318.15 K, x1 = 0.4 | – | 3.43
[2], 318.15 K, x1 = 0.502 | – | 3.94
[2], 318.15 K, x1 = 0.6006 | – | 4.48
[2], 318.15 K, x1 = 0.6982 | – | 5.07
[2], 318.15 K, x1 = 0.8053 | – | 5.75
[2], 318.15 K, x1 = 0.9018 | – | 6.42
[2], 318.15 K, x1 = 0.9503 | – | 6.75
[2], 328.15 K, x1 = 0.1007 | – | 2.23
[2], 328.15 K, x1 = 0.2003 | – | 2.57
[2], 328.15 K, x1 = 0.2486 | – | 2.75
[2], 328.15 K, x1 = 0.2973 | – | 2.95
[2], 328.15 K, x1 = 0.3958 | – | 3.38
[2], 328.15 K, x1 = 0.496 | – | 3.86
[2], 328.15 K, x1 = 0.5967 | – | 4.38
[2], 328.15 K, x1 = 0.6922 | – | 4.92
[2], 328.15 K, x1 = 0.798 | – | 5.55
[2], 328.15 K, x1 = 0.8997 | – | 6.21
[2], 328.15 K, x1 = 0.9487 | – | 6.53

From the NIST ThermoML archive (doi:10.1016/j.jct.2004.08.003)
